Several values for one entry are separate records, joined by “and”; a condition that tells them apart may be missing. Equal entries are not always repeated. Marks after values point to notes of the source that are not given here.
What was measured:
[1] = test system: Erythema induced by UVB radiation in mouse; test: Photoprotection: erythema induced by UVB radiation in mouse skin; type: in vivo; parameters: key to Erythema induced by UVB radiation in mouse: presence (+); absence (-); details: individual animals No. 1-10; 0.5% gel topical, about 2.5 kJ/m^2 UVB, 24 hours after exposure
Description: The effect of p-nitrolophine and m-nitrolophine on erythema due to exposing the mouse skin to an irradiation source at maximum in the UVB region has been studied in these assays. The results obtained have been compared with the effect of 4-methylbenzylidene camphor (P5000) a substance considered as a UVB solar filter and with the effect of butyl methoxydibenzoylmethane (P1789) an UVA type filter, both products being commonly used in antisolar cosmetics.
35 male mice weighing more than 20 grams have been used. After receiving them, the animals were acclimated for 7 days at the place where the assays were preformed, they were being placed in a cage with controlled temperature (22°C), with relative humidity between 50% and 75%, replacing fresh filtered air approximately 10 times per hour and with 12 h light/dark cycles (7.00 - 19.00 light and from 19.00 to 7.00 dark). For this period and during the experimental period, the animals were fed ad libitum with standard diet for rodents and running water as drink.
The animals were randomly distributed into 4 experimental groups according to Table 7. The products to be tested were directly used, applying them in the form of a gel on an area of the skin such that each animal form its own control.
The test was performed following the method described by Winder et al. ["A study of Pharmacological influences on ultraviolet erythema in guinea pigs". Arch. Int Pharmacodyn, 116:261-292; 1958] and by other authors [Wendy et al. "The local antinociceptive and topical antiinflamatory effects of propyl gallate in rodents". Br. J. Pharmacol, 58:573 -581; 1976; Katiyar et al. "Protective Effects of Silymarin Against Photocarcinogenesis in a Mouse Skin Model". J Natl Cancer Inst 89:556-65; 1997] with slight modifications. The day […] the assay, as much hair as possible were removed from the animals by applying a layer of commercial hair-removing cream to remove all the trace of hair and to leave the skin of the back completely bare. The rest of the hair-removing cream were removed by means of washing and rinsing with running water and the animals were the returned to their corresponding cages where they remained until the following day.
On the day of the assay, the substances to be assayed were blindly applied on the back of the previously labelled animals following a random pattern (randomized). After applying the corresponding treatments, the animals were placed and pinned to the presentation platform of the equipment. The animals were then placed 8 cm from an ultraviolet light source of 4*40w with 313 nm of fundamental emission and a range comprised approximately between 290 and 350 nm and with an anti-UVC filter. The emission spectrum of said light source is depicted in Figure 1.
The exposure was maintained until all the animals have received an approximate total dose of 2.5 kJ/m^2. The dose of irradiation applied was determined by means of a ultraviolet light detector, the response curve of which is shown in Figure 2.
Twenty four hours after ending the exposure, the back of the animals was photographed and they were returned to their cages. The evaluation of erythema was performed by means of a positive/negative criterion, the percentage of protected animals being obtained. The statistic significance of the difference was evaluated by means of the non-parametric Fisher Test.

[2] = Absorption spectrum in methanol (195 - 400 nm); type: physicochemical; details: peak wavelength, 10 mg/ml
Method: In order to determine the absorption spectrum, a solution of 10 mg/ml of methanol was prepared from each of the substances. The methanol in turn was used to adjust the zero absorbance in each of the wavelengths in the range of 195 - 400 nm.

[3] = UV spectrum: wavelengths of maximum absorption and absorbance (Cecil 2021 UV-Visible Spectrophotometer); type: physicochemical; details: for UV spectrum λ (nm): wavelengths of the maximum absorption; for UV spectrum A (a.u): absorbance at the maximum of the same line
[4] = test system: MCF-7 breast cancer cell line; test: E-Screen cell proliferation test; type: cell-based, human; details: MCF-7 cells, over control
Description: The E-Screen proliferation test is based on the use of MCF-7 breast cancer cell line. The MCF-7 cells [which endogenously expressed the estrogen receptor alpha (ERα)], respond to the treatment with estradiol increasing its proliferative rate, synthesizing new proteins and transcribing certain specific genes. […] The test compares the number of cells or the cell proliferation obtained after 6 days of culture. The cells grow in culture medium supplemented with human serum lacking of estrogens, in the presence and/or absence of estradiol as well as of the chemical compounds suspected of having estrogenic activity. The E-Screen test was performed following the methodology previously described by Soto et al. ["An in culture bioassay to assess the estrogenicity of xenobiotics. […] Health Perspect. 103:844-850; 1995]. […] The assay was ended after 144 hours of subculture (exponential phase) after drawing out the medium and fixing the cells for the application of sulforhodamine-B technique. Finally, the cell growth for each experimental group is related to the growth obtained for the negative control (absence of hormone) and with respect to estradiol (positive control). Once the E-Screen test is performed, the maximum cell proliferation rate induced by the compound also known as proliferative effect (PE) was established by calculating the ratio existing between the maximum proliferation rate obtained for the compound and the proliferation rate of the negative control. The proliferation data corresponding with the successive dilutions of the compound were transformed after the application of the correction factor for the dilution of each experimental point, the arithmetic mean of the data obtained being calculated. Another parameter is the relative proliferative efficiency (RPE). […] In this assay, the estrogenicity E-Screen test commonly used to identify the hormonal activity of compounds interacting specifically with the estrogen receptor alpha (ERα), has been used. The assays were performed in triplicate for each concentration (range: 300-0.003 µg/ml) in at least three independent experiments.

[5] = test system: MCF-7 breast cancer cell line; test: E-Screen cell proliferation test; type: cell-based, human; parameters: dose or concentration left out as unconfirmed; details: 144 h
ERβ = molecular target: T1, ERβ (Homo sapiens, UniProt Q92731); test: Estrogenicity reporter gene bioassay (luciferase activity) in HELN-ERβ cells; type: cell-based
T1 construct: expressed in transfected cells; host or cells: HeLa (HELN-ERβ)
Description: Briefly, the transactivation bioassay (Reporter gene assay) used are based on the use of breast and uterine cancer cell lines transfected with different native or modified hormone receptors. The resulting cell lines further contain a reporter gene regulated by estrogens through the estrogen response element, the globin promoter and the luciferase gene.
HELN-ERα and HELN-ERβ cell lines were obtained by means of transfecting the HeLa uterine cancer cell line. In a first phase, said cells were transfected with an estrogen sensitive response element and then with the estrogen receptor alpha or beta (ERα or ERβ). The selection of clones resistant to geneticin and puromycin was performed using a concentration of 1 mg/mL and 0.5 mg/mL, respectively. The maintenance medium as well as the experimental medium of these 2 cell lines is DMEM F12 without phenol red supplemented with 6% of FBS (lacking of estrogens), 1% of penicillin / streptomycin, 1 mg/mL of geneticin and 0.5 µg/mL of puromycin.
The cells were seeded at a density of 5x10^4 cells per well in white opaque 96 well plates in 150 µL of experimental medium. After 8 hours, the compounds to be assayed (p-nitrolophine and estradiol) were prepared (concentrated 4x) in the same medium and were added to each well (50 µl). The cells were incubated for 16 hours at 37°C. At the end of the incubation, the medium was removed and replaced with fresh medium containing […] luciferin [at that concentration, luciferin diffuses into cell producing a luminescent signal which is stable after 5 minutes and for at least 2 hours]. The plates were then introduced in the luminometer to measure the luminescence for 2 seconds. A YicroBeta Trilux luminometer (EGG Wallac) apparatus was used to detect luciferase activity.
The assays were preformed in quadruple for each concentration (0.01-10 µM) in at least three independent experiments. […] The values of luciferase activity obtained were analyzed using the one-way ANOVA statistic test. The differences were considered significant when P was less than […] (P < 0.05).

[6] = test system: inflammation induced by phorbol 12-myristate-13-acetate (PMA); test: Topical anti-inflammatory activity: ear inflammation induced by PMA in mice; type: in vivo; parameters: RE / RE Average: unit not given here; details: 4 hours
Method: The topical anti-inflammatory activity of p-nitrolophine has been analyzed in this study since erythema is a inflammatory process. Specifically, the inhibition of inflammation induced by phorbol 12-myristate-13-acetate (PMA) was evaluated and compared with an anti-inflammatory product of reference (indometacin). 37 mice were divided into the following groups: positive control group (PMA 0.5 mg); negative control group (indometacin 0.5 mg); treated groups (0.5 mg and 1 mg of p-nitrolophine). All the solutions were prepared using acetone (ppa) as vehicle. 20 µL of solution of 25 mg/mL of phorbol 12-myristate-13-acetate (PMA) [Fluka cod 79346] (10 µL in each face) was administered in the right ear of each mouse. Immediately after administering the PMA, nothing more was administered into the positive control group; 20 µL of the solution of 25 mg/mL of indometacin was administered to the negative control group, and 20 µL of the solution of 25 or 50 mg/mL of 4-nitrolophine was administered in the same manner to the treated groups. Animals having no lesions or skin and ear irritation were used.
After 4 hours of post-treatment, the mice were sacrificed through cervical fracture and a portion of 6 mm in diameter was obtained from each ear with a hollow punch which was weight in precision analytical balance. The difference in weight (Δ) between the right ear (treated) and the left ear (non treated) for each animal and for each group were calculated. The percentage of inhibition (% inh) was estimated and calculated according to the following equation: % inh = 100(1-Δt/Δc) [formula] wherein Δt represents the difference in the treated groups and Δc the difference for the […].
In order to analyze the results, an one way ANOVA and Dunnet test for multiple comparison was used, values of P<0.05 were considered significant. A software, Graphpad Instat Version 3.06, was used for such purposes.

T1 sequence (Q92731 whole entry, species assumed): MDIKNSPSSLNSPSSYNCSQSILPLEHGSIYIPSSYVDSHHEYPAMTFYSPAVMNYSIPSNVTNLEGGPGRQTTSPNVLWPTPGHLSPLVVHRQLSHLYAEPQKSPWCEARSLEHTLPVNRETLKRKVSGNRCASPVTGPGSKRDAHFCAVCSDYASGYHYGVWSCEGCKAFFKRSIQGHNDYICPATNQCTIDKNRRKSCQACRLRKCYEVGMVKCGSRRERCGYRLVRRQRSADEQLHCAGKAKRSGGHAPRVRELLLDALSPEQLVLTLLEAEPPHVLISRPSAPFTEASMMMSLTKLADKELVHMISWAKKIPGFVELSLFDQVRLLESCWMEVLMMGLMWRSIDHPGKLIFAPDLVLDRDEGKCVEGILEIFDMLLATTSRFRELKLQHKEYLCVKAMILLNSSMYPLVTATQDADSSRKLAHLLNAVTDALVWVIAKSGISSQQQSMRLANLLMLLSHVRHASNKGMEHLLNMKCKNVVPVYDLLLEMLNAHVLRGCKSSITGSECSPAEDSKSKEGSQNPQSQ

Row | SMILES | UV spectrum λ (nm) [3] | UV spectrum A (a.u) [3] | also measured
1 | Cc1ccc(C=C2C(=O)C3(C)CCC2C3(C)C)cc1 (stereo not drawn) [P5000, 4-methylbenzylidene camphor, reference compound] |  |  | Erythema induced by UVB radiation in mouse [1]: -; maximum absorption [2]: 295 nm
2 | COc1ccc(-c2nc(-c3ccccc3)c(-c3ccccc3)[nH]2)cc1 [2-(4-methoxyphenyl)-4,5-diphenyl-1H-imidazole] | 252.5 nm and 297.5 nm |  | 
3 | O=[N+]([O-])c1ccc(-c2nc3c4ccccc4c4ccccc4c3[nH]2)cc1 [2-(4-nitrophenyl)-1H-phenanthro[9,10-d]imidazole] | 202.0 nm and 256.0 nm and 388.5 nm |  | 
4 | CN(C)c1ccc(-c2nc(-c3ccccc3)c(-c3ccccc3)[nH]2)cc1 [2-[4-(N,N-dimethylamino)phenyl]-4,5-diphenyl-1H-imidazole] | 209.5 nm and 322 nm | 2.032 a.u and 2.692 a.u | 
5 | O=[N+]([O-])c1ccc(-c2nc(-c3ccc([N+](=O)[O-])cc3)c(-c3ccc([N+](=O)[O-])cc3)[nH]2)cc1 [2,4,5-tris(4-nitrophenyl)-1H-imidazole] | 236.0 nm and 370.0 nm | 1.410 a.u and 1.923 a.u | 
6 | O=[N+]([O-])c1ccc(/C=C/c2nc(-c3ccccc3)c(-c3ccccc3)[nH]2)cc1 [(E)-2-(4-nitrostyryl)-4,5-diphenyl-1H-imidazole] | 202.0 nm and 282.5 nm and 398.5 nm |  | 
7 | C(=C\c1nc(-c2ccccc2)c(-c2ccccc2)[nH]1)/c1ccccc1 [(E)-2-styryl-4,5-diphenyl-1H-imidazole] | 235.2 nm and 344.4 nm |  | 
8 | c1ccc(-c2nc(-c3ccccc3)c(-c3ccccc3)[nH]2)cc1 [2,4,5-triphenyl-1H-imidazole] | 209.0 nm and 296.0 nm | 0.817 a.u and 1.093 a.u | 
9 | C[C@]12CC[C@@H]3c4ccc(O)cc4CC[C@H]3[C@@H]1CC[C@@H]2O [E2, 17β-estradiol, reference compound] |  |  | maximum cell proliferation rate [4]: about 6.2 ± 0.3; Proliferative effect (PE) Mean [5]: 6, 62*; activity at 0.01 µM (ERβ): 100%
10 | Oc1ccc(-c2nc(-c3ccccc3)c(-c3ccccc3)[nH]2)cc1 [2-(4-hydroxyphenyl)-4,5-diphenyl-1H-imidazole] | 225.0 nm and 300.5 nm | 1.015 a.u and 1.364 a.u | 
11 | COc1ccc2c(c1)c(CC(=O)O)c(C)n2C(=O)c1ccc(Cl)cc1 [Indometacin, reference compound] |  |  | % inhibition [6]: 87.7** (q = 7.6) %; Average (Δ = RE - LE) ([6]; Dose (mg/ear) 0.5): 0.61; LE Average ([6]; left ear (non treated), group average, 0.5 mg group): 6.7; RE Average ([6]; right ear (treated), group average, 0.5 mg): 7.4; LE ([6]; weight of 6 mm portion of left ear (non treated), individual mice, 0.5 mg group): 6.2 and 6.4 and 6.9 (2×) and 6.7 (3×) and 7.6 and 5.5 and 7.2; RE ([6]; weight of 6 mm portion of right ear (treated), individual mice, 0.5 mg): 6.7 and 7.2 (2×) and 6.8 (2×) and 10 and 6.2 (2×) and 7.4 and 9.1
12 | Clc1ccc(-c2nc(-c3ccccc3)c(-c3ccccc3)[nH]2)cc1 [2-(4-chlorophenyl)-4,5-diphenyl-1H-imidazole] | 231.5 nm and 308.0 nm | 1.066 a.u and 1.371 a.u | 
13 | Fc1ccc(-c2nc(-c3ccccc3)c(-c3ccccc3)[nH]2)cc1 [2-(4-fluorophenyl)-4,5-diphenyl-1H-imidazole] | 224.0 nm and 297.5 nm | 1.117 a.u and 1.536 a.u | 

Source: EP2444396A1, “PHOTOPROTECTIVE COMPOSITION” (Apoteknos Para La Piel, S.L., priority 2009, dated 2010)
